Consider eight molecules from patent US9950074B2, “Composition and delivery vehicle for active agents and methods therefor” (Georg-August-Universität Göttingen Stiftung Öffenlichen …, priority 2012, dated 2018).

The subject of assay [1] is primary rat choroids plexus epithelial cells. Particulars: read-out: Km of FRα-dependent uptake; low extracellular folate concentrations; cited from earlier work.
Assay [2] deals with reduced folate carrier (RFC, SLC19A1) (Homo sapiens, UniProt P41440). As to conditions: read-out: influx Km of the RFC; cited from earlier work.
reduced folate carrier (RFC, SLC19A1), sequence (P41440 whole entry): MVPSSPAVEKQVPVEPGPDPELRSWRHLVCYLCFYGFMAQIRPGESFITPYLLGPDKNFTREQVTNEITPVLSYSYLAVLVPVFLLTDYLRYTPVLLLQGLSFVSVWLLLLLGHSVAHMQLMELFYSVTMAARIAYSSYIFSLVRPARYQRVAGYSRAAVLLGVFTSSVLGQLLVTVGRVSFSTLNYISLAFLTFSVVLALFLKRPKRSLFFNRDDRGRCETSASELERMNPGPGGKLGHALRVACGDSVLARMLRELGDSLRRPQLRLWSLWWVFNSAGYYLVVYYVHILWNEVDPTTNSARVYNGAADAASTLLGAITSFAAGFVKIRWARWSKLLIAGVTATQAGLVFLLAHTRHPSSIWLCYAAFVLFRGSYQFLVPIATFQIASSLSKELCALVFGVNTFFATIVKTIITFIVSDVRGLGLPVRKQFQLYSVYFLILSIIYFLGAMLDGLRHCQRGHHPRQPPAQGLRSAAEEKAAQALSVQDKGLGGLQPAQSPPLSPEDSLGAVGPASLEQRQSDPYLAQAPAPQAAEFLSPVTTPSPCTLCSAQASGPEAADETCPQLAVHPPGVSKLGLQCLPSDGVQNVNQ
In assay [3] the test system is Z310 cells stably expressing FRα. Briefly: [3H]5MTHF uptake with transporter inhibitors. Type of assay: cell-based, rat. As to conditions: 12.5 nM [3H]5MTHF, 1 hour at 37° C. The procedure: Z310 cells stably expressing FRα were incubated with 12.5 nM [^3H]5MTHF alone or together with TC, MTX, PAH, probenecid and digoxin for 1 hour at 37° C. Subsequently, cells were lysed and intracellular radioactivity was measured.
We performed additional experiments to evaluate FRα-independent transport processes in Z310 cells at physiological MTHF concentration (12.5 nM). A couple of organic anion transporters are known to be expressed in Z310 cells (Halwachs et al., 2011). […] At this concentration MTX is known to block FR-mediated MTHF binding as well.

In assay [4] the test system is primary mixed cortical cultures. The experiment in a line: internalization assay in primary mixed cortical cultures. The class given is cell-based, neonatal mice. As to conditions: 2 hours at 37° C. The procedure:
Disassociated neonatal cortices from postnatal day 0-2 mice were cultured in DMEM supplemented with 10% fetal calf serum, 1% GlutaMAX (Invitrogen), 100 U/mL penicillin and 100 μg/mL streptomycin on laminin- and poly-L-lysin-coated coverslips at 37° C. in 5% CO2. Medium was changed every 3-4 days. At DIV 7-14, mixed cortical cultures consisting of oligodendrocytes, cortical neurons and microglia on an astrocyte monolayer were obtained.
Mixed cortical cultures were obtained form neonatal mice and immediately plated on coverslips and incubated in the respective growth medium. Before the internalization assay, exosomes were purified from Z310 cells, stably transfected with FRα or vector and labelled with PKH26 and FA-FITC as described above. The uptake was performed by incubating the cell cultures with exosome dilutions for 2 hours at 37° C. and 5% CO2. Cells were then fixed, permeabilized and stained with the respective antibodies for immunofluorescence analysis.
We have unexpectedly disclosed FRα as exosomal cargo in the CSF. To further understand the biological function of this transport mechanism we injected exosomes derived from FRα-transfected or vector-transfected Z310 cells into the lateral ventricle of C57BL/6 mice. […] After incubating the cells for 2 hours at 37° C., cells were fixed and analyzed by immunofluorescence microscopy.

The test system of assay [5] is Z310 cells stably transfected with FRα. The experiment in a line: apical release (shedding) of [3H]5MTHF from filter-grown Z310 cells. The class given is cell-based. Particulars: FRα-transfected Z310 cells loaded 1 h with [3H]5MTHF; 7 μM monensin or 0.5 mg/ml rat transferrin.
Description: After three washing steps, cells were incubated with fresh RPMI medium containing either 7 μM monensin (Mon) or 0.5 mg/ml rat transferrin (Trans) or contained no supplementation. Samples from the apical and basolateral compartment were removed at the indicated time points. Subsequently, cells were lysed and radioactivity was measured in medium samples and cell lysates. Data are means±s.e.m. of three independent experiments.
For 5MTHF uptake and transport measurements in Z310 cells, 4.2*104 cells were seeded in laminin coated transwell culture plates (0.3 cm2 growth area, 0.4 μm pore size) in folate-free RPMI medium. To test the barrier function, dye permeability assays with lucifer yellow were performed. Cells were used for experiments when the permeability was below 1% per hour. […] Radioactivity in medium samples and cell lysates was measured in a liquid scintillation spectrometer.
FRα-transfected or vector-transfected Z310 cells were grown in a two chamber transwell system and [^3H]5MTHF was either given into the basolateral or apical compartment. After a 1 h incubation with [^3H]5MTHF the medium was replaced by fresh medium and the time-dependent emergence of [^3H]5MTHF in both compartments was detected.
Assay [6] has as its system primary porcine choroid plexus epithelial cells (PCPEC). The experiment in a line: apical transport of 5MTHF in primary PCPECs. Particulars: PCPEC loaded with 25 nM [3H]5MTHF for 24 hours; 7 μM monensin. Type of assay: cell-based.
Description: Filter-grown PCPECs were loaded with 25 nM [^3H]5MTHF for 24 hours. Cells were then incubated with 7 μM monensin or left untreated. Radioactivity from medium samples was measured at the indicated time points. […] Data are means±s.e.m. of two independent experiments, each done in triplicate.
Porcine choroid plexus epithelial cells (PCPECs) were prepared basically as described previously (Hakvoort et al., 1998: J Neurochem 71, 1141-1150). Isolated PCPECs were seeded in laminin-coated transwell culture plates (0.4 μm pore size, Costar, Cambridge, Mass.) with a diameter of 12 mm using a seeding density of 20 mg wet tissue/cm2. The cell culture medium (DMEM-Ham's F-12, Biochrom, Berlin, Germany) was supplemented with 10% fetal calf serum, 4 mM glutamine, 5 μg/ml insulin, 100 U/mL penicillin and 100 μg/mL streptomycin. Cytosine arabinoside (20 μM) was added to suppress the growth of contaminating cells. After reaching confluence at days in vitro (DIV) 8, growth medium was replaced by serum-free culture medium (SFM) to support cell differentiation and improve barrier function. At DIV 10, the medium was replaced by folate-free RPMI medium (Invitrogen) without serum.
Filter-grown PCPEC were loaded with 25 nM [^3H]5MTHF for 24 hours. Subsequently, medium was changed and cells were treated with 7 μM monensin or left untreated.

Turning to `CN1c2c(nc(N)[nH]c2=O)NCC1CNc1ccc(C(=O)N[C@@H](CCC(=O)O)C(=O)O)cc1` (some centres unmarked) [5MTHF, 5-methyltetrahydrofolate], the Km in assay [1] is about 0.0095 µM; in assay [2], 2 to 7 µM.

For the molecule `CCCN(CCC)S(=O)(=O)c1ccc(C(=O)O)cc1` [probenecid], the “effect on uptake of [3H]5MTHF” value in assay [3] is reported as “none of the inhibitors reduced the uptake”. For the molecule “Folic acid conjugated to fluorescein isothiocyanate [FA-FITC]”, in assay [4] (combined with FRα-positive exosomes), the “delivery of FA-FITC to cells” value is on record as “delivered to astrocytes”. For the same molecule, in assay [4] (free FA-FITC without exosomes), the “internalization of FA-FITC by cells” value is recorded as “none of the cell types internalized free FA-FITC”.

With `CN(Cc1cnc2nc(N)nc(N)c2n1)c1ccc(C(=O)N[C@@H](CCC(=O)O)C(=O)O)cc1` [MTX, methotrexate], the “effect on uptake of [3H]5MTHF” value in assay [3] (inhibitor at 10 μM) is listed as “significantly reduced 5MTHF uptake”. Turning to `C[C@H]1O[C@@H](O[C@H]2[C@@H](O)C[C@H](O[C@H]3[C@@H](O)C[C@H](O[C@H]4CC[C@@]5(C)[C@H](CC[C@@H]6[C@@H]5C[C@@H](O)[C@]5(C)[C@@H](C7=CC(=O)OC7)CC[C@]65O)C4)O[C@@H]3C)O[C@@H]2C)C[C@H](O)[C@@H]1O` [digoxin], in assay [3], the “effect on uptake of [3H]5MTHF” value was “none of the inhibitors reduced the uptake”. For the molecule `Nc1ccc(C(=O)NCC(=O)O)cc1` [p-aminohippuric acid], the “effect on uptake of [3H]5MTHF” value in assay [3] is “none of the inhibitors reduced the uptake”.

In the case of `CC[C@@]1([C@@H]2O[C@@H]([C@H]3O[C@@](O)(CO)[C@H](C)C[C@@H]3C)C[C@@H]2C)CC[C@H]([C@]2(C)CC[C@]3(C[C@H](O)[C@@H](C)[C@@H]([C@@H](C)[C@@H](OC)[C@H](C)C(=O)O)O3)O2)O1` [monensin], the “increase of apical shedding of [3H]5MTHF” value in assay [5] is 70%. The “enhancement of apical accumulation of [3H]5MTHF” value in assay [6] is listed as 33%.

B1: transferrin: rat transferrin (Rockland), known to induce exosome release from cells (protein, UniProt P12346 20-698, looked up)
Serotransferrin: VPDKTVKWCAVSEHENTKCISFRDHMKTVLPADGPRLACVKKTSYQDCIKAISGGEADAITLDGGWVYDAGLTPNNLKPVAAEFYGSLEHPQTHYLAVAVVKKGTDFQLNQLQGKKSCHTGLGRSAGWIIPIGLLFCNLPEPRKPLEKAVASFFSGSCVPCADPVAFPQLCQLCPGCGCSPTQPFFGYVGAFKCLRDGGGDVAFVKHTTIFEVLPQKADRDQYELLCLDNTRKPVDQYEDCYLARIPSHAVVARNGDGKEDLIWEILKVAQEHFGKGKSKDFQLFGSPLGKDLLFKDSAFGLLRVPPRMDYRLYLGHSYVTAIRNQREGVCPEGSIDSAPVKWCALSHQERAKCDEWSVSSNGQIECESAESTEDCIDKIVNGEADAMSLDGGHAYIAGQCGLVPVMAENYDISSCTNPQSDVFPKGYYAVAVVKASDSSINWNNLKGKKSCHTGVDRTAGWNIPMGLLFSRINHCKFDEFFSQGCAPGYKKNSTLCDLCIGPAKCAPNNREGYNGYTGAFQCLVEKGDVAFVKHQTVLENTNGKNTAAWAKDLKQEDFQLLCPDGTKKPVTEFATCHLAQAPNHVVVSRKEKAARVSTVLTAQKDLFWKGDKDCTGNFCLFRSSTKDLLFRDDTKCLTKLPEGTTYEEYLGAEYLQAVGNIRKCSTSRLLEACTFHKS
As to B1, the “increase of apical shedding of [3H]5MTHF” value in assay [5] is given as 36%.

One may read the Km as the concentration of substrate that gives half-maximal velocity.
